From ChEMBL document CHEMBL1275474, “In vitro activity of tigecycline against multidrug-resistant Acinetobacter baumannii and selection of tigecycline-amikacin synergy” (2008) come the findings set out here.

Converted amounts (≈) assume the structure as drawn. The source made the active and inactive calls. No cut-off for these calls is given here. Bounds are passed on as bounds.

Assay [1] concerns Acinetobacter baumannii. Put plainly: Antimicrobial activity against Acinetobacter baumannii by microdilution method. The assay is classed as functional.
Assay [2] deals with Acinetobacter baumannii. Nature of the assay: Antimicrobial activity against Acinetobacter baumannii isolate 853 by microdilution method. It counts as functional.
Assay [3] relates to Acinetobacter baumannii. Nature of the assay: Antimicrobial activity against Acinetobacter baumannii isolate 1198 by microdilution method. It counts as functional.
In assay [4] the test system is Acinetobacter baumannii. Put plainly: Antimicrobial activity against Acinetobacter baumannii assessed as susceptible isolates by microdilution method. It counts as functional.
Assay [5] deals with Acinetobacter baumannii. Nature of the assay: Antimicrobial activity against Acinetobacter baumannii isolate 1826 by microdilution method. The assay is classed as functional.
In assay [6] the test system is Acinetobacter baumannii. Put plainly: Bactericidal activity against Acinetobacter baumannii isolate 1198 at 16 ug/ml after 24 hrs by time kill analysis. It counts as functional, organism-based.
Assay [7] deals with Acinetobacter baumannii. Put plainly: Antimicrobial activity against Acinetobacter baumannii by microdilution method in presence of beta-lactamase inhibitor Sulbactam. The assay is classed as functional.
For assay [8], the system named is Acinetobacter baumannii. Put plainly: Antimicrobial activity against Acinetobacter baumannii by microdilution method in presence of beta-lactamase inhibitor Tazobactam. It counts as functional.
For assay [9], the system named is Acinetobacter baumannii. Nature of the assay: Bactericidal activity against Acinetobacter baumannii isolate 1198 at 2 ug/ml after 24 hrs by time kill analysis. The assay is classed as functional, organism-based.
Assay [10] deals with Acinetobacter baumannii. Nature of the assay: Bactericidal activity against Acinetobacter baumannii isolate 1826 at 2 ug/ml after 4 hrs by time kill analysis. The assay is classed as functional, organism-based.
The test system of assay [11] is Acinetobacter baumannii. Put plainly: Bactericidal activity against Acinetobacter baumannii isolate 1826 at 2 ug/ml up to 4 hrs by time kill analysis. It counts as functional, organism-based.
Assay [12] concerns Acinetobacter baumannii. Nature of the assay: Bactericidal activity against Acinetobacter baumannii isolate 1198 at 1 ug/ml after 24 hrs by time kill analysis. The assay is classed as functional, organism-based.
Assay [13] relates to Acinetobacter baumannii. Nature of the assay: Bactericidal activity against Acinetobacter baumannii isolate 1826 at 8 ug/ml after 4 hrs by time kill analysis. It counts as functional, organism-based.
In assay [14] the test system is Acinetobacter baumannii. Put plainly: Bactericidal activity against Acinetobacter baumannii isolate 1826 at 8 ug/ml up to 4 hrs by time kill analysis. It counts as functional, organism-based.
Assay [15] relates to Acinetobacter baumannii. Put plainly: Bactericidal activity against Acinetobacter baumannii isolate 853 at 0.06 ug/ml at 6 hrs by time kill analysis. It counts as functional, organism-based.
Assay [16] deals with Acinetobacter baumannii. Put plainly: Bactericidal activity against Acinetobacter baumannii isolate 853 at 0.5 ug/ml at 6 hrs by time kill analysis. The assay is classed as functional, organism-based.

As for `NCC[C@H](O)C(=O)N[C@@H]1C[C@H](N)[C@@H](O[C@H]2O[C@H](CN)[C@@H](O)[C@H](O)[C@H]2O)[C@H](O)[C@H]1O[C@H]1O[C@H](CO)[C@@H](O)[C@H](N)[C@H]1O` [AMIKACIN], the MIC50 against Acinetobacter baumannii [1] came out at 8 µg/mL (≈ 13.7 µM). Besides, the MIC90 with Acinetobacter baumannii [1] was more than 128 µg/mL. Besides, the MIC was not above 0.5 µg/mL in the assay on Acinetobacter baumannii [2], more than 128 µg/mL against Acinetobacter baumannii [3] and 2 µg/mL (≈ 3.42 µM) against Acinetobacter baumannii [5]. Moreover, the Activity in the assay on Acinetobacter baumannii [4] is listed as 53%. Also, the outcome in the assay on Acinetobacter baumannii [6] was inactive.
Regarding `CC1(C)S[C@@H]2[C@H](NC(=O)[C@H](N)c3ccccc3)C(=O)N2[C@H]1C(=O)O` [AMPICILLIN], the Activity in the assay on Acinetobacter baumannii [4] is recorded as 31%. In addition, in the assay with Acinetobacter baumannii [7], the MIC50 came out at 16 µg/mL and the MIC90 stood at 128 µg/mL.
On to `CC(C)(O/N=C(\C(=O)N[C@@H]1C(=O)N2C(C(=O)[O-])=C(C[n+]3ccccc3)CS[C@H]12)c1csc(N)n1)C(=O)O` [CEFTAZIDIME], for which, in the assay on Acinetobacter baumannii [1], the MIC50 came to 64 µg/mL (≈ 117 µM) and the MIC90 is more than 64 µg/mL. Also, in the assay with Acinetobacter baumannii [4], the Activity is reported as 17%.
Take `C[C@@H](O)[C@H]1C(=O)N2C(C(=O)O)=C(SCCNC=N)C[C@H]12` [IMIPENEM ANHYDROUS]: in the assay with Acinetobacter baumannii [1], the MIC50 worked out at 1 µg/mL (≈ 3.34 µM) and the MIC90 stood at 16 µg/mL (≈ 53.4 µM). Besides, the Activity in the assay with Acinetobacter baumannii [4] came out at 86%.
For the compound `C[C@H]1COc2c(N3CCN(C)CC3)c(F)cc3c(=O)c(C(=O)O)cn1c23.C[C@H]1COc2c(N3CCN(C)CC3)c(F)cc3c(=O)c(C(=O)O)cn1c23.O` [LEVOFLOXACIN], in the assay with Acinetobacter baumannii [1], the MIC50 was 8 µg/mL and the MIC90 worked out at 16 µg/mL. In addition, in the assay on Acinetobacter baumannii [4], the Activity worked out at 35%.
On to `CN(C)c1ccc(O)c2c1C[C@H]1C[C@H]3[C@H](N(C)C)C(O)=C(C(N)=O)C(=O)[C@@]3(O)C(O)=C1C2=O` [MINOCYCLINE], for which, in the assay on Acinetobacter baumannii [1], the MIC50 was 2 µg/mL (≈ 4.37 µM) and the MIC90 is 8 µg/mL (≈ 17.5 µM). Further, the Activity in the assay on Acinetobacter baumannii [4] was determined as 78%.
Regarding `CCN1CCN(C(=O)N[C@@H](C(=O)N[C@@H]2C(=O)N3[C@@H]2SC(C)(C)[C@@H]3C(=O)O)c2ccccc2)C(=O)C1=O` [PIPERACILLIN], the Activity in the assay on Acinetobacter baumannii [4] is 9%. In addition, in the assay with Acinetobacter baumannii [8], the MIC50 is more than 128 µg/mL and the MIC90 was more than 128 µg/mL.
As to `CN(C)c1cc(NC(=O)CNC(C)(C)C)c(O)c2c1C[C@H]1C[C@H]3[C@H](N(C)C)C(O)=C(C(N)=O)C(=O)[C@@]3(O)C(O)=C1C2=O` [TIGECYCLINE], the MIC amounted to 0.06 µg/mL (≈ 0.102 µM) in the assay on Acinetobacter baumannii [1], 0.12 µg/mL (≈ 0.205 µM) with Acinetobacter baumannii [2], 4 µg/mL (≈ 6.83 µM) in the assay on Acinetobacter baumannii [3] and 64 µg/mL (≈ 109 µM) in the assay with Acinetobacter baumannii [5]. Further, the result in the assay with Acinetobacter baumannii [9], in the assay on Acinetobacter baumannii [10], with Acinetobacter baumannii [12], with Acinetobacter baumannii [13] and with Acinetobacter baumannii [15] was inactive. Also, the result in the assay on Acinetobacter baumannii [11] and with Acinetobacter baumannii [14] was Active.
In the assay with Acinetobacter baumannii [1], GENTAMICIN yielded an MIC50 of more than 32 µg/mL and an MIC90 of more than 32 µg/mL. Also, the Activity in the assay with Acinetobacter baumannii [4] worked out at 16%.
In the assay on Acinetobacter baumannii [1], POLYMYXIN B showed an MIC50 of 1 µg/mL. For the same compound, in the assay with Acinetobacter baumannii [1], the MIC90 came to 2 µg/mL. Besides, the MIC against Acinetobacter baumannii [2] was 1 µg/mL; in the assay on Acinetobacter baumannii [3] it was 1 µg/mL; in the assay on Acinetobacter baumannii [5], 2 µg/mL. The outcome with Acinetobacter baumannii [16] was inactive. The Activity in the assay on Acinetobacter baumannii [4] turned out to be 99%.
